From ChEMBL document CHEMBL1821675, “The selective P-TEFb inhibitor CAN508 targets angiogenesis” (Eur J Med Chem, 2011)
Calls of active or inactive are those of the source. The rule behind the calls is not given here.

Legend:
[1] = test system: BT-549; experiment: Cytotoxicity against human BT549 cells; format: functional
[2] = test system: MDA-MB-231; experiment: Cytotoxicity against human MDA-MB-231 cells; format: functional
[3] = test system: SF-539; experiment: Cytotoxicity against human SF539 cells; format: functional
[4] = test system: U-251; experiment: Cytotoxicity against human U251 cells; format: functional
[5] = test system: HCT-15; experiment: Cytotoxicity against human HCT15 cells; format: functional
[6] = test system: NCI-H322M; experiment: Cytotoxicity against human NCI-H322M cells; format: functional
[7] = test system: NCI-H460; experiment: Cytotoxicity against human NCI-H460 cells; format: functional
[8] = test system: LOX IMVI; experiment: Cytotoxicity against human LOXIMVI cells; format: functional
[9] = test system: M14; experiment: Cytotoxicity against human M14 cells; format: functional
[10] = test system: SK-MEL-28; experiment: Cytotoxicity against human SK-MEL-28 cells; format: functional
[11] = test system: SK-OV-3; experiment: Cytotoxicity against human SKOV3 cells; format: functional
[12] = test system: 786-0; experiment: Cytotoxicity against human 786-0 cells; format: functional
[13] = test system: TK-10; experiment: Cytotoxicity against human TK10 cells; format: functional
[14] = Antiangiogenic activity in VEGF-stimulated HMEC1 assessed as reduction in total length of tube at 40 uM after 16 hrs by photographic analysis; format: functional, Homo sapiens, HMEC-1; design: scale not given: the % may be the effect or the level left
[15] = Antiangiogenic activity in VEGF-stimulated HMEC1 assessed as reduction in median length of tube at 20 uM after 16 hrs by photographic analysis; format: functional, Homo sapiens, HMEC-1; design: scale not given: the % may be the effect or the level left
[16] = molecular target: Aurora kinase B (Homo sapiens) (UniProt Q96GD4); experiment: Inhibition of Aurora B assessed as residual activity at 10 uM by radioactivity assay in presence of 20 uM ATP
[17] = molecular target: Serine/threonine-protein kinase BRSK1 (Homo sapiens) (UniProt Q8TDC3); experiment: Inhibition of BRSK1 assessed as residual activity at 10 uM by radioactivity assay in presence of 20 uM ATP
[18] = molecular target: Serine/threonine-protein kinase BRSK2 (Homo sapiens) (UniProt Q8IWQ3); experiment: Inhibition of BRSK2 assessed as residual activity at 10 uM by radioactivity assay in presence of 50 uM ATP
[19] = molecular target: Eukaryotic elongation factor 2 kinase (Homo sapiens) (UniProt O00418); experiment: Inhibition of EF2K assessed as residual activity at 10 uM by radioactivity assay in presence of 5 uM ATP
Chain of Eukaryotic elongation factor 2 kinase (Homo sapiens) (O00418 whole entry): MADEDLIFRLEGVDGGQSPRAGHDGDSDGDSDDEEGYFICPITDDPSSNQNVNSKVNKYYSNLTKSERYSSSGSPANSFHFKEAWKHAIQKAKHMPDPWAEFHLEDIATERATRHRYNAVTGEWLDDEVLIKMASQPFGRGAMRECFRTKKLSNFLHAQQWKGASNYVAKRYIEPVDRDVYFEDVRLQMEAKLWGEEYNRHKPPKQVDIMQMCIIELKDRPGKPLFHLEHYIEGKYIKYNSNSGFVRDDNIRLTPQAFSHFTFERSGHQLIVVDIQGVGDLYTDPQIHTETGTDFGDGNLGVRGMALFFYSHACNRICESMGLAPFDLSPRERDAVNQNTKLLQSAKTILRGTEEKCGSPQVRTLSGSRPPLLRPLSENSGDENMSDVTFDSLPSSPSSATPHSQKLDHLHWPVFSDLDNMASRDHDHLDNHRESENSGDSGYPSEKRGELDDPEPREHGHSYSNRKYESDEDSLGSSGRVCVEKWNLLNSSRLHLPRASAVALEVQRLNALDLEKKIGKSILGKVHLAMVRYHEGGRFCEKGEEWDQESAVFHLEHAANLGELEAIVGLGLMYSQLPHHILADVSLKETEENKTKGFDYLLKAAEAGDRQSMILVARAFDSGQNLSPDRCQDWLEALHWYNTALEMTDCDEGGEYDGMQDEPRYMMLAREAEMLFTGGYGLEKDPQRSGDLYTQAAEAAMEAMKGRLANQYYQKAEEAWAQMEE

[20] = molecular target: Homeodomain-interacting protein kinase 1 (Homo sapiens) (UniProt Q86Z02); experiment: Inhibition of HIPK1 assessed as residual activity at 10 uM by radioactivity assay in presence of 20 uM ATP
[21] = molecular target: Serine/threonine-protein kinase Chk2 (Homo sapiens) (UniProt O96017); experiment: Inhibition of CHK2 assessed as residual activity at 10 uM by radioactivity assay in presence of 20 uM ATP
[22] = molecular target: Inhibitor of nuclear factor kappa-B kinase subunit epsilon (Homo sapiens) (UniProt Q14164); experiment: Inhibition of IKK-epsilon assessed as residual activity at 10 uM by radioactivity assay in presence of 50 uM ATP
[23] = molecular target: Insulin receptor (Homo sapiens) (UniProt P06213); experiment: Inhibition of IR assessed as residual activity at 10 uM by radioactivity assay in presence of 20 uM ATP
Chain of Insulin receptor (Homo sapiens) (P06213 28-758 limits assumed): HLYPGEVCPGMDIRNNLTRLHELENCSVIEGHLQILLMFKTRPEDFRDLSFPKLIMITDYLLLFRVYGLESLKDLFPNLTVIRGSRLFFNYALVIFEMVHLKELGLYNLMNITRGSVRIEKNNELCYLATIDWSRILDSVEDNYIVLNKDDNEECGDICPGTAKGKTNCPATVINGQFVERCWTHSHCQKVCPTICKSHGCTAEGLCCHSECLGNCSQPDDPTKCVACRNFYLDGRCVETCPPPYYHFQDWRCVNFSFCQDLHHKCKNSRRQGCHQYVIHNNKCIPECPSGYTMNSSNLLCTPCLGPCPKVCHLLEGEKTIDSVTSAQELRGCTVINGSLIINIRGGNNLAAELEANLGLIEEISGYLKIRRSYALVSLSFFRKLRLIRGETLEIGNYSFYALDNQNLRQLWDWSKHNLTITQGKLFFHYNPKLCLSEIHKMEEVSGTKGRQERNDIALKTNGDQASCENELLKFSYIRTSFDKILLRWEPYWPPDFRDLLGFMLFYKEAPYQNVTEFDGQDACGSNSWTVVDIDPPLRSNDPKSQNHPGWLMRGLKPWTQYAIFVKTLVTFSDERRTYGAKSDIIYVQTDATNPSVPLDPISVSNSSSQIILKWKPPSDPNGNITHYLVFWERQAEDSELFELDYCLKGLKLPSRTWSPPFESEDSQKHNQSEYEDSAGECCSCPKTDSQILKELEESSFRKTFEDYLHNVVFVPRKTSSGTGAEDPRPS
Chain of Insulin receptor (Homo sapiens) (P06213 763-1382 limits assumed): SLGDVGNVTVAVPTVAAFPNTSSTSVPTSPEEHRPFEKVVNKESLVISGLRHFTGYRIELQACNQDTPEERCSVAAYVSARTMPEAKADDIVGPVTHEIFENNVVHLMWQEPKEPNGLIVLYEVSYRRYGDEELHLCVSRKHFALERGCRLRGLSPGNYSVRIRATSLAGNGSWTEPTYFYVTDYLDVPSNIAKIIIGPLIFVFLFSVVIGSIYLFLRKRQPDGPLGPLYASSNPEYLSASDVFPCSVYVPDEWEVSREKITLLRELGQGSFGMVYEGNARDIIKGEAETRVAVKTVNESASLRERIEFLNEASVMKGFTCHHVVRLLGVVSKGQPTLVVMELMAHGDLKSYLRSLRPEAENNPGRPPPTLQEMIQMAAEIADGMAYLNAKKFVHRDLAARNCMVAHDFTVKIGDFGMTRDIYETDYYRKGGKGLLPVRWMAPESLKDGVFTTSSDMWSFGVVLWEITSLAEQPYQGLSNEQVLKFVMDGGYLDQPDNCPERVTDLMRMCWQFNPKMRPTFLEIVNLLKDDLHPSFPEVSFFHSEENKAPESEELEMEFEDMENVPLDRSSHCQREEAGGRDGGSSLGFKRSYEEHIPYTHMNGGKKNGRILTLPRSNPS

[24] = molecular target: Insulin receptor-related protein (Homo sapiens) (UniProt P14616); experiment: Inhibition of IRR assessed as residual activity at 10 uM by radioactivity assay in presence of 5 uM ATP
Chain of Insulin receptor-related protein (Homo sapiens) (P14616 27-742 limits assumed): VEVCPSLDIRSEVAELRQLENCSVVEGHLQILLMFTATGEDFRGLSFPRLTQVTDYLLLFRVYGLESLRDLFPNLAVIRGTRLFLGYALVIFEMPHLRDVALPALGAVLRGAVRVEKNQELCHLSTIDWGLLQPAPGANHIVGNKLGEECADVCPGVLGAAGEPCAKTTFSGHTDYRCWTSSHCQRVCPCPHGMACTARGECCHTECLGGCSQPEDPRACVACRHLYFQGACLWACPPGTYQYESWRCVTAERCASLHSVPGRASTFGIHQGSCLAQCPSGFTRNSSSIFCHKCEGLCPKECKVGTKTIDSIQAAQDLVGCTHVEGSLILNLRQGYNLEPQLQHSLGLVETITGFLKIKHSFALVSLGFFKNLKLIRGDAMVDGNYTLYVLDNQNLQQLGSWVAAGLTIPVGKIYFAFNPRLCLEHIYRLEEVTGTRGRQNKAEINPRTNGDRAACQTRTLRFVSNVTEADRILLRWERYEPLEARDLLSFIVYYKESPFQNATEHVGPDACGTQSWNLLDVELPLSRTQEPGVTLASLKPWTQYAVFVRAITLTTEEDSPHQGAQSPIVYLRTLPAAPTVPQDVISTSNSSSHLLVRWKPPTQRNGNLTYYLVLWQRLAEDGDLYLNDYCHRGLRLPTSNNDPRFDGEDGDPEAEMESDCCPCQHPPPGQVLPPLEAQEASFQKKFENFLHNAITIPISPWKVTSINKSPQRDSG
Chain of Insulin receptor-related protein (Homo sapiens) (P14616 747-1297 limits assumed): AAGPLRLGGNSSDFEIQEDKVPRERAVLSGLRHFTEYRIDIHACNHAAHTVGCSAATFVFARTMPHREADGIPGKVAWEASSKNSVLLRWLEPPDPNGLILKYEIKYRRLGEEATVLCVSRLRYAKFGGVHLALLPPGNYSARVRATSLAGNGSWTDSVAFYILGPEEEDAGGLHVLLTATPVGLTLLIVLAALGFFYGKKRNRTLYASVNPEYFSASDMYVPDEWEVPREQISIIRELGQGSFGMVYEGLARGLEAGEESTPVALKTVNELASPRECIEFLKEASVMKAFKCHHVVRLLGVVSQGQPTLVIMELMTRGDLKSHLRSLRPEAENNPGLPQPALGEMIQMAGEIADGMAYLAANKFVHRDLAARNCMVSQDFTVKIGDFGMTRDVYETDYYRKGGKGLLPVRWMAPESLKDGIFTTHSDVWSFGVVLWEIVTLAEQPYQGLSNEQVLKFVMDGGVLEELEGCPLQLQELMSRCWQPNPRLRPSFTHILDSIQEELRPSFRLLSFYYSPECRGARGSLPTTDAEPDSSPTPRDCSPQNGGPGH

[25] = molecular target: Mitogen-activated protein kinase 8 (Homo sapiens) (UniProt P45983); experiment: Inhibition of JNK1A1 assessed as residual activity at 10 uM by radioactivity assay in presence of 20 uM ATP
[26] = molecular target: Mitogen-activated protein kinase 9 (Homo sapiens) (UniProt P45984); experiment: Inhibition of JNK2alpha2 assessed as residual activity at 10 uM by radioactivity assay in presence of 20 uM ATP
[27] = molecular target: MAP/microtubule affinity-regulating kinase 4 (Homo sapiens) (UniProt Q96L34); experiment: Inhibition of MARK4 assessed as residual activity at 10 uM by radioactivity assay in presence of 50 uM ATP
[28] = molecular target: MAP kinase-interacting serine/threonine-protein kinase 2 (Homo sapiens) (UniProt Q9HBH9); experiment: Inhibition of MNK2alpha assessed as residual activity at 10 uM by radioactivity assay in presence of 50 uM ATP
[29] = molecular target: Serine/threonine-protein kinase 26 (Homo sapiens) (UniProt Q9P289); experiment: Inhibition of MST4 assessed as residual activity at 10 uM by radioactivity assay in presence of 20 uM ATP
[30] = molecular target: Mitogen-activated protein kinase 13 (Homo sapiens) (UniProt O15264); experiment: Inhibition of p38delta MAPK assessed as residual activity at 10 uM by radioactivity assay in presence of 5 uM ATP
[31] = molecular target: Mitogen-activated protein kinase 12 (Homo sapiens) (UniProt P53778); experiment: Inhibition of p38-gamma MAPK assessed as residual activity at 10 uM by radioactivity assay in presence of 5 uM ATP
Chain of Mitogen-activated protein kinase 12 (Homo sapiens) (P53778 whole entry): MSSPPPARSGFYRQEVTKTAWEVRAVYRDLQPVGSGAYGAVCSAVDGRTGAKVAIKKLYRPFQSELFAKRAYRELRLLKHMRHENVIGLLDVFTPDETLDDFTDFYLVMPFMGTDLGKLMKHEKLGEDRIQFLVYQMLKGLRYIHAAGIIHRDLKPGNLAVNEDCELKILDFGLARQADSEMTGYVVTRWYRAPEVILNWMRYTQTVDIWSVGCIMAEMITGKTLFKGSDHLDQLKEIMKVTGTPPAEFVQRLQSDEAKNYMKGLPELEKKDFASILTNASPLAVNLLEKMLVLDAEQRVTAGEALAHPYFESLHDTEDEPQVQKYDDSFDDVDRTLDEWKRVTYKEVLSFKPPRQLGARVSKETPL

[32] = molecular target: Serine/threonine-protein kinase PAK 4 (Homo sapiens) (UniProt O96013); experiment: Inhibition of PAK4 assessed as residual activity at 10 uM by radioactivity assay in presence of 5 uM ATP
Chain of Serine/threonine-protein kinase PAK 4 (Homo sapiens) (O96013 whole entry, looked up): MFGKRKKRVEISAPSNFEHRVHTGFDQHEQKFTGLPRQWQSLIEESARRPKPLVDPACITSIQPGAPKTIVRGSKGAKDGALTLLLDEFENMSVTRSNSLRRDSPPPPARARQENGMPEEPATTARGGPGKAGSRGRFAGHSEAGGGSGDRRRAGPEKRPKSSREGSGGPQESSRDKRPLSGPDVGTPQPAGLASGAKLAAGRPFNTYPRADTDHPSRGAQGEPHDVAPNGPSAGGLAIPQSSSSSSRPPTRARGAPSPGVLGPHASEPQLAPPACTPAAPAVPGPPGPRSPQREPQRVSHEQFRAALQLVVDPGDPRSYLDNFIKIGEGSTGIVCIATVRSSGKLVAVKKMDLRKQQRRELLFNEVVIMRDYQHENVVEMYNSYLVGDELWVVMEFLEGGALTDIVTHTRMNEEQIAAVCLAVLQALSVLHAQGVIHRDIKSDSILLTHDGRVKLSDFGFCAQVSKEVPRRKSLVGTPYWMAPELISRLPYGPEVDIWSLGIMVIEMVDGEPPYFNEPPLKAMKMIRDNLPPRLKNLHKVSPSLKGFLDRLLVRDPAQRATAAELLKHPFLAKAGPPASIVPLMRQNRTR

[33] = molecular target: Serine/threonine-protein kinase pim-3 (Homo sapiens) (UniProt Q86V86); experiment: Inhibition of PIM3 assessed as residual activity at 10 uM by radioactivity assay in presence of 20 uM ATP
[34] = Inhibition of PKA assessed as residual activity at 10 uM by radioactivity assay in presence of 20 uM ATP
[35] = molecular target: Protein kinase C zeta type (Homo sapiens) (UniProt Q05513); experiment: Inhibition of PKCzeta assessed as residual activity at 10 uM by radioactivity assay in presence of 5 uM ATP
[36] = molecular target: MAP kinase-activated protein kinase 5 (Homo sapiens) (UniProt Q8IW41); experiment: Inhibition of PRAK assessed as residual activity at 10 uM by radioactivity assay in presence of 20 uM ATP
[37] = molecular target: Receptor-interacting serine/threonine-protein kinase 2 (Homo sapiens) (UniProt O43353); experiment: Inhibition of RIPK2 assessed as residual activity at 10 uM by radioactivity assay in presence of 20 uM ATP
[38] = molecular target: Ribosomal protein S6 kinase alpha-3 (Homo sapiens) (UniProt P51812); experiment: Inhibition of RSK2 assessed as residual activity at 10 uM by radioactivity assay in presence of 50 uM ATP
[39] = molecular target: Serine/threonine-protein kinase TBK1 (Homo sapiens) (UniProt Q9UHD2); experiment: Inhibition of TBK1 assessed as residual activity at 10 uM by radioactivity assay in presence of 50 uM ATP
Chain of Serine/threonine-protein kinase TBK1 (Homo sapiens) (Q9UHD2 whole entry): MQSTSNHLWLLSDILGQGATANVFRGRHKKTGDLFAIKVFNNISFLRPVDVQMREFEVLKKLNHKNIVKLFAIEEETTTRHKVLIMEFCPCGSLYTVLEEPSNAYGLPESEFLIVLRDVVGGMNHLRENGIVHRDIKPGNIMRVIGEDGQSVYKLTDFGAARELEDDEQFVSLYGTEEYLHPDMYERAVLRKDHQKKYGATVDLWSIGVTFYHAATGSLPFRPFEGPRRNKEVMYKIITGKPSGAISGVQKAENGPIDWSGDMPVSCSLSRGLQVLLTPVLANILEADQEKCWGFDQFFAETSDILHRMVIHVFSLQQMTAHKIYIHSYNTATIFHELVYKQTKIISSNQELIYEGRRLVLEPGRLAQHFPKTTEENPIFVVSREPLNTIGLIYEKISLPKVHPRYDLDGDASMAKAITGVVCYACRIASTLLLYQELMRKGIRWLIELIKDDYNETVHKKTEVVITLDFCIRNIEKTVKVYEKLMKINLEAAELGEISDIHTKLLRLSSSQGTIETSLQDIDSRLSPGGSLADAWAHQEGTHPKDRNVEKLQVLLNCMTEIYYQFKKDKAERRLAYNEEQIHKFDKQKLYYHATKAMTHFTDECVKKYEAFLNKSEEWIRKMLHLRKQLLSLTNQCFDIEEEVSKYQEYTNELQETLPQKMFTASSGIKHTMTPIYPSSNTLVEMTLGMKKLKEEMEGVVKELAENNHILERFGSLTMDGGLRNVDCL

[40] = test system: HUVEC; experiment: Antiangiogenic activity against HUVEC cells assessed as inhibition of VEGF-induced cell migration-associated wound closure at >10 uM after 16 hrs by microscopic analysis; format: functional, cell-based; conditions: Homo sapiens
[41] = test system: HUVEC; experiment: Antiproliferative activity against HUVEC cells assessed as decrease in cell viability at 10 to 40 uM within 72 hrs by calcein AM staining-based fluorescence assay; conditions: human

Nc1n[nH]c(N)c1/N=N/c1ccc(O)cc1
GI50 [1]: 14 µM | GI50 [2]: 16.7 µM | GI50 [3]: 13.2 µM | GI50 [4]: 21.2 µM | GI50 [5]: 24.2 µM | GI50 [6]: 25.1 µM | GI50 [7]: 25.1 µM | GI50 [8]: 4.1 µM | GI50 [9]: 15.9 µM | GI50 [10]: 22.1 µM | GI50 [11]: 49.2 µM | GI50 [12]: 26.2 µM | GI50 [13]: 25.6 µM | Activity [14]: 30% | Activity [15]: 30% | Activity [16]: 46% | Activity [17]: 66% | Activity [18]: 62% | Activity [19]: 106% | Activity [20]: 106% | Activity [21]: 57% | Activity [22]: 45% | Activity [23]: 78% | Activity [24]: 29% | Activity [25]: 87% | Activity [26]: 102% | Activity [27]: 72% | Activity [28]: 39% | Activity [29]: 77% | Activity [30]: 77% | Activity [31]: 50% | Activity [32]: 79% | Activity [33]: 19% | Activity [34]: 63% | Activity [35]: 74% | Activity [36]: 43% | Activity [37]: 57% | Activity [38]: 96% | Activity [39]: 55% | inhibition [40]: Active | Activity [41]: Non-toxic
